This is an account of results in US10087156B2, “Methods and compositions related to retinoid receptor-selective pathway” (Sanford Burnham Prebys Medical Discovery Institute, priority 2010, dated 2018).

Series [1] can be described thus: Preclinical toxicity study. It counts as in vivo. As to the method: (§1) Preclinical studies of K-80003 were performed, including the investigation of toxicity, bioavailability, and pharmacokinetics.
The next series addresses T1, COX-1 (Ovis aries, UniProt P05979).
T1 construct: purchased Cayman Chemical 700100
Kind of series: COX activity assay. In kind it is biochemical. As for the experimental part:
(§2) COX Fluorescent Activity Assay Kit (700200), COX Fluorescent Inhibitor Screening Assay Kit (700100) and Prostaglandin E2 Enzyme Immunoassay (EIA) Kit (514010) were obtained from Cayman Chemical (Ann Arbor, Mich.). COX-1 and COX-2 activity assay were performed according to the manufacturer's protocol.

A further series concerns the target T2, COX-2 (Homo sapiens, UniProt P35354).
T2 construct: purchased Cayman Chemical 700100
Put plainly: COX activity assay. It counts as biochemical. As for the experimental part:
as §2

The next series deals with MCF-7 breast tumor. Put plainly: MCF-7 breast tumor growth, oral administration. In kind it is in vivo. Conditions: mice, 15, 30, 60 mg/kg by gavage once daily, 20 days. As for the experimental part:
The growth inhibitory effect of oral administration of K-80003 on MCF-7 breast tumor tissue grown in mice was investigated. K-80003 was dissolved in NaHCO3 (pH 8.0). Mice with MCF-7 breast tumor tissue were administered 15 mg/kg K-80003, 30 mg/kg K-80003, 60 mg/kg K-80003, or a control in 100 ul total volume by gavage once daily.

Series [2] is described as follows: Preclinical bioavailability and pharmacokinetics. In kind it is in vivo. As for the experimental part:
as §1

In another series the target is RXRα LBD (Homo sapiens, UniProt P19793). Kind of series: 19F NMR binding assay. Conditions: 100 μM compound, 10 μM RXRα LBD.
In the next series the test system is RXRα/Δ80 tumor. Put plainly: RXRα/Δ80 tumor growth in animals. Conditions: mice, 60 mg/kg intraperitoneally, two weeks. It counts as in vivo. As for the experimental part:
Mice (n=6) were treated intraperitoneally with corn oil, Sulindac (60 mg/kg), or K-80003 (60 mg/kg) for two weeks. Tumors were removed and measured. […] Together, the RXRα-selective Sulindac analog K-80003 is a potent inhibitor of RXRα-mediated PI3K/AKT signaling and cancer cell growth.

The test system of the next series is c-FLIP. Put plainly: c-FLIP expression by immunoblotting. It counts as cell-based. Conditions: HepG2, A549 and SW480 cells, 6 hr. As to the method: Cells treated with TNFα and/or Sulindac for 6 hr were analyzed by immunoblotting (FIG. 6I). The expression of c-FLIP, a downstream target gene of AKT signaling, which acts as a potent inhibitor of the extrinsic apoptotic pathway by inhibiting caspase-8 activation, was examined. […] Thus, Sulindac may induce apoptosis by suppressing the inducing effect of TNFα on c-FLIP expression.

Series [3] addresses T3, RXRα homodimer and heterodimer (Homo sapiens, UniProt P19793).
T3 construct: expressed in transfected cells; host or cells: CV-1 green monkey kidney cells
Put plainly: (TREpal)2-tk-CAT and βRARE-tk-CAT reporter assays in CV-1 cells. In kind it is cell-based. Conditions: SR11237 10^−6 M. As to the method: Nur77 and/or RXRα were transiently transfected into CV-1 cells. Cells were treated with or without SR11237 (10^−6 M), a RXR-selective agonist, in the presence or absence of Sulindac. (TREpal)2-tk-CAT (Zhang et al., Nature 358, 587-591 (1992a)) (FIG. 1E) and βRARE-tk-CAT (Zhang et al., Nature 355, 441-446 (1992b)) (FIG. 1F) CAT activity were determined.
(§3) Cells (1×10^5 cells/well) seeded in 24-well plates were transiently transfected using a modified calcium phosphate precipitation procedure as described (Kolluri, S. K. et al., Proc Natl Acad Sci USA 102 (7), 2525-2530 (2005); Cao, X., et al., Mol Cell Biol 24(22), 9705-9725 (2004)).

The subject of series [4] is interaction of p85α with tRXRα and/or RXRα. Kind of series: Co-immunoprecipitation with ΔN197 anti-RXRα antibody. It counts as cell-based. Conditions: TNFα-enhanced. As to the method:
RXRα interaction with p85α was examined. Anti-RXRα […]antibodies (Santa Cruz Biotechnology, Santa Cruz, Calif.) were used in co-immunoprecipitation (Co-IP) and Western blotting (WB) assays. BHK cells were treated with ATRA (10^−7 M) for 30 min. Lysates were prepared and analyzed for RXRα-p85α interaction using either D20 anti-RXRα or ΔN197 anti-RXRα antibody (FIG. 12D).
For the CoIP assay, cells or cells transfected with indicated expression vectors were suspended in lysis buffer (50 mM Tris-HCl, pH 7.4; 150 mM NaCl; 20 mM EDTA; 1% NP-40; 1 mM PMSF; […] Leupeptin; […] Aprotinin; 0.1 mM Na3VO4; and 1 mM DTT). Cell extracts were cleared by incubation with the Protein A/G plus Agarose beads (Santa Cruz Biotechnology, Santa Cruz, Calif.) and then incubated with appropriate antibody and […] of Protein A or G plus Agarose beads overnight at 4° C. Beads were then washed and boiled in Laemmli gel-loading solution before performing SDS-PAGE/immunoblotting using polyclonal or monoclonal antibodies. Immunoreactive products were detected by chemiluminescence with an enhanced chemiluminescence system (ECL™) (Amersham Biosciences, Amersham, UK).

A further series concerns the target T4, RXRα/PPARγ heterodimer (Homo sapiens, UniProt P19793).
T4 construct: expressed in transfected cells; host or cells: CV-1 green monkey kidney cells
Put plainly: DR1 tk-CAT reporter assay in CV-1 cells. Conditions: ciglitazone 10^−6 M. It counts as cell-based. As for the experimental part:
(§4) Receptor expression vectors and a reporter gene (TREpal2-tk-CAT for RXRα/TRα heterodimers (FIG. 9C), and DR1 tk-CAT for RXRα/PPARγ heterodimer (FIG. 9B)) were transiently transfected into CV-1 cells. Cells were treated with or without ligands (ciglitazone, 10^−6 M; T3, 10^−7 M) in the presence or absence of Sulindac. CAT activity was determined.
as §3
A general note: In a reporter assay the amount or activity of a reporter protein is the signal.

The next series has as its target T5, RXRα/TRα heterodimers (Homo sapiens, UniProt P19793).
T5 construct: expressed in transfected cells; host or cells: CV-1 green monkey kidney cells
Put plainly: TREpal2-tk-CAT reporter assay in CV-1 cells. Conditions: T3 10^−7 M. In kind it is cell-based. As for the experimental part: as §4, §3

The subject of another series is HepG2 cells. Kind of series: Caspase-8 activation by anti-cleaved caspase-8 immunostaining. It counts as cell-based. Conditions: TNFα and Sulindac. As to the method: PC3 cells transfected with CA-AKT or DN-AKT were treated with TNFα and/or Sulindac, and analyzed by immunoblotting (FIG. 6F). Activation of caspase-8 (FIG. 6G) and Bax (FIG. 6H) by Sulindac and TNFα. HepG2 cells transfected with CA-AKT were treated with TNFα and Sulindac, and immunostained with anti-cleaved caspase-8 or Bax/6A7 antibody. […] Sulindac/TNFα-induced PARP cleavage was inhibited by transfection of constitutive-active AKT (CA-AKT) but enhanced by transfection of dominant-negative AKT (DN-AKT) (FIG. 6F). Consistently, induction of apoptosis (FIG. 17B) and activation of caspase-8 (FIG. 6G) and Bax (FIG. 6H) by Sulindac/TNFα combination was inhibited by CA-AKT.

T3 sequence (P19793 whole entry, one chain of several): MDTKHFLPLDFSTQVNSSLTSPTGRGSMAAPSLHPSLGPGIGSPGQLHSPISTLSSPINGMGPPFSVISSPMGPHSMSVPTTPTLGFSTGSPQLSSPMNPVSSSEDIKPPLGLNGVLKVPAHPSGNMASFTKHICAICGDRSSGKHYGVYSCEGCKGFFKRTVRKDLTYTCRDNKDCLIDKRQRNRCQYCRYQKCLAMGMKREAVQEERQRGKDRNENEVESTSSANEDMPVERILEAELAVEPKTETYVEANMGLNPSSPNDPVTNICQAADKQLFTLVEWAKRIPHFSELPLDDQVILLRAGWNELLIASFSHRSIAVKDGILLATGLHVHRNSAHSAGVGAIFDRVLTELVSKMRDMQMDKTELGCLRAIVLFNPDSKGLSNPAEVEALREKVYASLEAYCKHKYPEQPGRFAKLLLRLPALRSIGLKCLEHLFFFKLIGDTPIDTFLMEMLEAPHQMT
T5 sequence (P19793 whole entry): as the sequence (P19793 whole entry, one chain of several) above
T5 sequence (P10827 1-410 isoform P10827-2 partner): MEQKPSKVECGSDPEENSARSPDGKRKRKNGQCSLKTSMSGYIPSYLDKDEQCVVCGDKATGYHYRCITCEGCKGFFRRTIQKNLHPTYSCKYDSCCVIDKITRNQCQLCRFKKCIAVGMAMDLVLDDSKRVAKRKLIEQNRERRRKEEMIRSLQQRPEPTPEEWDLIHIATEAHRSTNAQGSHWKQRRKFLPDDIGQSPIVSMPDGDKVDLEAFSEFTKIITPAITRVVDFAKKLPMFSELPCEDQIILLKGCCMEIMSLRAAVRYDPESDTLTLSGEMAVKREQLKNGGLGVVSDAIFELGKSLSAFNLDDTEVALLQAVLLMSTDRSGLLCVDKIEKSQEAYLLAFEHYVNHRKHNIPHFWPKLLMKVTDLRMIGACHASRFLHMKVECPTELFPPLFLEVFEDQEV
T4 sequence (P19793 whole entry): as the sequence (P19793 whole entry, one chain of several) above
T4 sequence (P37231 whole entry partner): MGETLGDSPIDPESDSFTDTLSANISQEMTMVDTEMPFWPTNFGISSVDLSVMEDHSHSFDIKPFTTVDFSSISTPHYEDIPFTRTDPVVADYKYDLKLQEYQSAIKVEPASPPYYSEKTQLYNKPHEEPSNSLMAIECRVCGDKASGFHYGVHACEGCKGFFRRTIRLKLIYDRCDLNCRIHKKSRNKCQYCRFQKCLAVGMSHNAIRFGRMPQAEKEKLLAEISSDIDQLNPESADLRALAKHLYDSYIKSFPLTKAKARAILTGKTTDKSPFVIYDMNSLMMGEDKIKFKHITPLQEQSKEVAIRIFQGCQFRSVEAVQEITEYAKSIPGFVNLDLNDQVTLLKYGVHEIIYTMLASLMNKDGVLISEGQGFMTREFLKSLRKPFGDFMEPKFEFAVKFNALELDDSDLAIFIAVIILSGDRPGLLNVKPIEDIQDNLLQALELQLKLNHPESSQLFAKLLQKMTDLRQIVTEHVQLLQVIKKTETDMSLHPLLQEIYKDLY
Chain of RXRα LBD (P19793 227-458 limits assumed): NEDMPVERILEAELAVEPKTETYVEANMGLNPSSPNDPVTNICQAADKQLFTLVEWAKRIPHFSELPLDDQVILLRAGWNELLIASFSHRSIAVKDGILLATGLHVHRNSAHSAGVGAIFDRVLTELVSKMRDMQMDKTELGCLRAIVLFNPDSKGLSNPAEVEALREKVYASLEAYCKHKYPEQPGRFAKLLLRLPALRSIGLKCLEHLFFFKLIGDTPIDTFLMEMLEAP
T2 sequence (P35354 18-604): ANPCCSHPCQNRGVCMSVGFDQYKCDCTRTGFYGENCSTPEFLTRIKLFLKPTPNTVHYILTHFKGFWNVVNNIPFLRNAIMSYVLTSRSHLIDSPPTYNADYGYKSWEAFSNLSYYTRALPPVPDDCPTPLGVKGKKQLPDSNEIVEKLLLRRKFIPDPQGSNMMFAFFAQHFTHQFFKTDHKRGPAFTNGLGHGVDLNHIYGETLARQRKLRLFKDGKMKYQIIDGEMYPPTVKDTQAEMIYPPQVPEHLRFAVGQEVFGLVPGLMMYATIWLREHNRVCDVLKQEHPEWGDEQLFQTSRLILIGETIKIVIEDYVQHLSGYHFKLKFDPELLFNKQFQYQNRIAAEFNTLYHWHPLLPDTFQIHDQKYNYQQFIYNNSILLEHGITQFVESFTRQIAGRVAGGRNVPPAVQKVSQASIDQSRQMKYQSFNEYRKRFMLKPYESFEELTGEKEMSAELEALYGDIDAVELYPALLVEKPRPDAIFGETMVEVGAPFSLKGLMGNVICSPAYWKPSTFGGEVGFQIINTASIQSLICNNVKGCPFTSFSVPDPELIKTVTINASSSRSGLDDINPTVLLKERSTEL
T1 sequence (P05979 25-600): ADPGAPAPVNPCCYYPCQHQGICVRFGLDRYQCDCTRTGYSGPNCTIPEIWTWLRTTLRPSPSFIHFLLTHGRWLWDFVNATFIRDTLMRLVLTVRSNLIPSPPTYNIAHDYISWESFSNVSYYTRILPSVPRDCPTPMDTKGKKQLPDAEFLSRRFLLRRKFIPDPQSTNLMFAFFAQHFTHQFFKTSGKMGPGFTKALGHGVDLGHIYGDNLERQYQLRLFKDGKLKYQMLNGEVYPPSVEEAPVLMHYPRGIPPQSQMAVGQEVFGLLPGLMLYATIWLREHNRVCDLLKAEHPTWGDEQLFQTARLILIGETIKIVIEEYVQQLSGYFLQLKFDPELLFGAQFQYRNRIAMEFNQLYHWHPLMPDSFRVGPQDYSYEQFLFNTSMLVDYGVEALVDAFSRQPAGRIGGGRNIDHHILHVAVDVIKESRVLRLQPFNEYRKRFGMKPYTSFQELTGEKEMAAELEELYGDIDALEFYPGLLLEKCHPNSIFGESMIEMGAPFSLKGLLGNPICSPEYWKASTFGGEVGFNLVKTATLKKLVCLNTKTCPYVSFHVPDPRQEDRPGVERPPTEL

`CC1=C(CC(=O)O)c2cc(F)ccc2/C1=C\c1ccc(C(C)C)cc1` [K-80003, (Z)-2-(3-(4-Iso-propylbenzylidene)-6-fluoro-2-methyl-3H-inden-1-yl)acetic acid]: the toxicity entry in series [1] is “very low toxicity”. Moreover, the “inhibition of COX-1 activity” value at COX-1 was “no detectable inhibition”. The “inhibition of COX-2 activity” value on COX-2 was “no detectable inhibition”. Besides, the “tumor volume compared to control” value in the series on MCF-7 breast tumor was “dose-dependent decrease in tumor volume”. Moreover, the bioavailability entry in series [2] (oral compared to intravenous formulation) is on record as “increased bioavailaility in oral compared to intravenous formulation”. Moreover, the PK profiles entry in series [2] (preclinical study) is “desirable PK profiles”. In addition, the “binding to RXRα by 19F NMR” value on RXRα LBD is on record as “confirmed”. The “inhibition of RXRα/Δ80 tumor growth, compared with Sulindac” value with RXRα/Δ80 tumor is reported as “much more potent inhibitory effect than Sulindac”.
Consider `CSc1ccc(/C=C2/C(C)=C(CC(=O)O)c3cc(F)ccc32)cc1` [Sulindac, (Z)-2-(3-(4-(Methylthio)benzylidene)-6-fluoro-2-methyl-3H-inden-1-yl)acetic acid], for which, in the series on c-FLIP, the “TNFα induction of c-FLIP (c-FLIPS and c-FLIPL)” value is on record as “inhibited”. In addition, the “RXRα homodimer and heterodimer transactivation (CAT activity)” value in [3] is “inhibited RXRα homodimer and heterodimer transactivation”. Also, the “interaction of p85α with tRXRα and/or RXRα” value in [4] was “inhibited”. The “transactivation of RXRα/PPARγ heterodimers (CAT activity)” value on RXRα/PPARγ heterodimer is on record as “inhibited transactivation”. At RXRα/TRα heterodimers, the “transactivation of RXR/TR heterodimers (CAT activity)” value is “not RXR/TR heterodimers”. For the same compound, in the series on HepG2 cells, the “cells showing caspase-8 staining, CA-AKT-transfected” value is 15% and the “cells showing caspase-8 staining, nontransfected” value is “About 80%”.
